Laboratory results: patent publication US20070155736A1, “FLUORINATED PHNO AND ANALOGUES THEREOF” (Clara Inc., priority 2005, published 2007)
Structures can show the parent of a compound that is named as a salt.

What was measured:
[1] = molecular target: T1, high-affinity state of dopamine D2 receptors (Rattus norvegicus, UniProt P61169); experiment: Biological potency on the high-affinity state of dopamine D2 receptors in rat homogenized striatal tissue; type: binding; settings: [3H]-domperidone
T1 construct: from tissue; host or cells: rat striatum, homogenized
T1 sequence (P61169 whole entry): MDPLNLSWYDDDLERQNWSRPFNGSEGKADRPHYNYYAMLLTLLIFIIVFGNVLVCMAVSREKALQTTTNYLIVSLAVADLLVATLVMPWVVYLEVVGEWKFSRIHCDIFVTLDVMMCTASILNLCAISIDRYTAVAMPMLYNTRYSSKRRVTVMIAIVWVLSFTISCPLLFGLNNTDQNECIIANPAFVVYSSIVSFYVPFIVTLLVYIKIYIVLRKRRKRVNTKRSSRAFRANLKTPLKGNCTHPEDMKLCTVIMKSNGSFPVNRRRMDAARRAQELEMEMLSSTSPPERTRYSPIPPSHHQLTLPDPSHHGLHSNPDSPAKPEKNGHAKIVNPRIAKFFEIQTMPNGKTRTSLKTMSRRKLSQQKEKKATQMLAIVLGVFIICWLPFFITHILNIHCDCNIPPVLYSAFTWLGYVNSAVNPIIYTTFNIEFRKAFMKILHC
Source text: (§1) It is herein submitted that the short-term use of tracer doses of a compound of the invention, wherein R^1 is C1-6alkyl in which one hydrogen atom on the alkyl chain in replaced with radioactive fluoro, in radioimaging procedures will be of diagnostic and therapeutic importance in dopamine-related disorders.

rat cloned D3 receptor = molecular target: T2, rat cloned D3 receptor (Rattus norvegicus, UniProt P19020); experiment: Binding to rat cloned D3 receptor using 1.6 nM [3H]-raclopride
T2 construct: expressed in transfected cells
T2 sequence (P19020 whole entry): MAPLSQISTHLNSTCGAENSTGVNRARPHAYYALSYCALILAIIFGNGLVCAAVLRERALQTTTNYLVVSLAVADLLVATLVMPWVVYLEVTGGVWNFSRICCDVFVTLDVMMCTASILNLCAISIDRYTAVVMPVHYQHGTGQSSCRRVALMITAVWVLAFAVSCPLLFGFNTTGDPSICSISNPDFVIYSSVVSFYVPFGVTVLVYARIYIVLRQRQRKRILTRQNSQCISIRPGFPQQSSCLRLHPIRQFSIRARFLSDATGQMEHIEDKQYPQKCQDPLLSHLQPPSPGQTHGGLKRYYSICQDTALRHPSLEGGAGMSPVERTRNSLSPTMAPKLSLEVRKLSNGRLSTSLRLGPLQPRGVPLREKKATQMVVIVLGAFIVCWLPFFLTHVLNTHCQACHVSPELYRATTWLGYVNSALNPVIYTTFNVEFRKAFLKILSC
Source text: as §1

D2^High receptors = D2^High receptors (Homo sapiens, UniProt P14416); settings: human volunteer, PET
D2^High receptors, sequence (P14416 whole entry): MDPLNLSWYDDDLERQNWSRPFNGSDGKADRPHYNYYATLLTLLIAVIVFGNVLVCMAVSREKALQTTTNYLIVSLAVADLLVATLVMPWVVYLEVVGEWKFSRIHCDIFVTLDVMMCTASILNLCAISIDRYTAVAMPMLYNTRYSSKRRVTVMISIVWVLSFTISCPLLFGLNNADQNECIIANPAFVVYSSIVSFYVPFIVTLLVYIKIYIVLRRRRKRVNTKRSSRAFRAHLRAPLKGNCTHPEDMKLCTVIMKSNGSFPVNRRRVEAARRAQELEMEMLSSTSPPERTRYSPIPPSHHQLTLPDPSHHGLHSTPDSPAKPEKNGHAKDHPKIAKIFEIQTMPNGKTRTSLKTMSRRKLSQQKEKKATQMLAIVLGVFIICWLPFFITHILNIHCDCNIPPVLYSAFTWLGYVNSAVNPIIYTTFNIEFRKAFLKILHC
Method: After a brief transmission scan for attenuation correction of the emission scans, emission scans are obtained every minute for the first 15 min, and then every 5 min until the end of the study at 75 min. The PET scanning is conducted by using a dedicated brain scanner, GEMS PC2048-15B PET camera (General Electric Medical Systems) that produces fifteen 6.5 mm-thick slices with a resolution of 5-6 mm. The volunteer is scanned lying down and the head fixed by using a thermoplastic face mask. For accurate anatomical position of the various brain regions, each volunteer receives an MRI (magnetic resonance imaging) scan. The regions of interest are transferred to the PET images by using Alice™ 3.1 software.
The regions of interest include the head of the caudate nucleus. […] Several hours after the initial injection of (+)-[^18F]-PHNO, a second injection of (+)-[^18F]-PHNO is given intravenously at the same time as a very low dose of non-radioactive (+)PHNO, (+)-F-PHNO or a very low dose of apomorphine. […] The density of the D2^High sites in the caudate nucleus that are labeled by (+)-[^18F]-PHNO is calculated, knowing the specific activity of the tracer injected and the amount of radioactivity detected by the positron imaging camera.

[2] = in vivo; cited from earlier work

| Structure (SMILES) | Kd [1] [nM] | Kd (rat cloned D3 receptor) [nM] | also measured |
| --- | --- | --- | --- |
| Oc1ccc2c(c1)[C@H]1OCCN(CCCF)[C@@H]1CC2 (as salt: hydrochloride) [(+)-F-PHNO, (4aR,10bR)-4-(3-Fluoropropyl)-3,4,4a,5,6,10b-hexahydro-2H-naphtho[1,2-b][1,4]oxazin-9-ol Hydrochloride] |  |  | melting point: 253 to 255 °C |
| Oc1ccc2c(c1)[C@H]1OCCN(CCCCF)[C@@H]1CC2 [(+)-F-But-HNO, (4aR,10bR)-4-(4-Fluorobutyl)-3,4,4a,5,6,10b-hexahydro-2H-naphtho[1,2-b][1,4]oxazin-9-ol Hydrochloride] | 20 ± 8.7 | 34 |  |
| Oc1ccc2c(c1)[C@H]1OCCN(CCF)[C@@H]1CC2 [(+)-F-EHNO, (4aR,10bR)-4-(2-Fluoroethyl)-3,4,4a,5,6,10b-hexahydro-2H-naphtho[1,2-b][1,4]oxazin-9-ol Hydrochloride] | 1.7 ± 0.3 | 1.7 |  |
| Oc1ccc2c(c1)[C@H]1OCCN(CCCCCCF)[C@@H]1CC2 [(+)-F-Hex-HNO, (4aR,10bR)-4-(6-Fluorohexyl)-3,4,4a,5,6,10b-hexahydro-2H-naphtho[1,2-b][1,4]oxazin-9-ol Hydrochloride] | 52 ± 27 | 45 |  |
| Oc1ccc2c(c1)[C@H]1OCCN(CCCF)[C@@H]1CC2 [(+)-F-PHNO, (4aR,10bR)-4-(3-Fluoropropyl)-3,4,4a,5,6,10b-hexahydro-2H-naphtho[1,2-b][1,4]oxazin-9-ol Hydrochloride] | 0.46 ± 0.06 | 0.38 |  |
| Oc1ccc2c(c1)[C@H]1OCCN(CCCCCF)[C@@H]1CC2 [(+)-F-Pent-HNO, (4aR,10bR)-4-(5-Fluoropentyl)-3,4,4a,5,6,10b-hexahydro-2H-naphtho[1,2-b][1,4]oxazin-9-ol Hydrochloride] | 25 ± 4 | 54 |  |
| Oc1ccc2c(c1)[C@H]1OCCN(CCC[18F])[C@@H]1CC2 [(+)-[^18F]-PHNO, [^18F]-(4aR,10bR)-4-(3-fluoropropyl)-3,4,4a,5,6,10b-hexahydro-2H-naphtho[1,2-b][1,4]oxazin-9-ol] |  |  | peak emission in the caudate nucleus (D2^High receptors; at 10 minutes after i.v. injection): about 0.22 % of the injected dose per kg; time of peak emission in the caudate nucleus after intravenous injection (D2^High receptors; bolus plus infusion i.v.): 10 min |
| CCCN1CCO[C@@H]2c3cc(O)ccc3CC[C@H]21.Cl [(+)PHNO, (+)-(4aR,10bR)-3,4,4a,5,6,10b-hexahydro-4-propyl-2H-naphth[1,2-b][1,4]oxazin-9-ol HCl] |  |  | effect in Parkinson's disease [2]: effective in alleviating Parkinson's disease |
